{
  "source": "paper PMC5354814",
  "about": "“In silico and in vitro drug screening identifies new therapeutic approaches for Ewing sarcoma” (Oncotarget, 2016)",
  "key": {"[1]": {"tested_on": "rat lung", "parameters": "method as in ref 19 (a number printed in a supplementary file, which may have a reference list of its own: not looked up in the article's list)", "conditions": "1.5 x 10^-4M; cited from earlier work"}, "[2]": {"tested_on": "A673 cells", "experiment": "siRNA silencing of EWS-FLI1 followed by auranofin treatment (CellTiter-Blue)", "assay_type": "cell-based", "conditions": "then auranofin 72 h", "experimental": "To knock down the expression of EWS-FLI1 in A673 Ewing cells, we designed two different siRNAs, corresponding to the sequence within the 3′ downstream half of EWS-FLI1 mRNA (siFLI1-#3) and the sequence of the breakpoint of EWS-FLI1 type I mRNA (siBPEF1) respectively. To examine whether the siRNAs could abolish the expression of EWS-FLI1, the effects of siRNAs on the protein levels of EWS-FLI1 were analyzed by western blot (see Supplementary methods).\n(B) Cell viability was assessed by the CellTiter Blue assay in A673 cells treated by siControl, siFLI1-#3 or siBPEF1 for 48 h then followed by the incubation of auranofin ranging from 7.8 nmol/L to 1 μmol/L for 72h. Data are presented as the mean ± SD of three independent experiments performed in triplicate. (C) In vivo studies of auranofin, ganetespib and the combination treatment in an EWS xenograft mice model (n = 12 per group). The percentage of survival rate in control, auranofin treated, ganetespib treated, and auranofin in combination with ganetespib treated groups.\nPredict drugs using three computational resolved on the 4–20% Mini-PROTEAN TGXTM approaches Precast Gels (Bio-Rad, Hercules, CA) and transferred onto PVDF membranes (Bio-Rad, Hercules, CA).\nDisease-based approach: We used the disease Immunoblotting was done with the following antibodies: signature to query the drug expression database and rabbit polyclonal anti-FLI1 (C-19) (Santa Cruz selected the top 20 negatively scored hits. siRNA-based Biotechnology, Dallas, TX), mouse monoclonal anti-approach: We used the siEWS-FLI1 mediated signature β-actin (Sigma, St. Louis, MO), HRP conjugated goat to query the drug expression database and selected the top anti-rabbit IgG (Cell Signaling, Danvers, MA) and 20 positively scored hits. […] Membranes were developed using ECL database and select the top 20 negatively scored hits. […]\n(Lafayette, CO). […] After 72 h of auranofin treatment, cell viability was evaluated using the 18. […]"}},
  "note": "Where two headings read alike, the source gives them in different places.",
  "data": [
    {"compound": "CC(=O)OC[C@H]1O[C@@H]([S-])[C@H](OC(C)=O)[C@@H](OC(C)=O)[C@@H]1OC(C)=O.CCP(CC)CC.[Au+]", "note": "[Auranofin, auranofin]", "values": [
      {"measurement": "ovalbumin antigen-induced release of histamine", "setting": "[1]", "result": "inhibition"},
      {"measurement": "IC50", "setting": "[2]; siBPEF1 48 h, read-out: IC50 (siBPEF1)", "result": "> 1000", "unit": "nM"},
      {"measurement": "IC50", "setting": "[2]; siControl 48 h, read-out: IC50 (siControl)", "result": "270 ± 20", "unit": "nM"},
      {"measurement": "IC50", "setting": "[2]; siFLI1-#3 48 h, read-out: IC50 (siFLI1-#3)", "result": "> 1000", "unit": "nM"}
    ]}
  ]
}
